Test system: Radical scavenging activity
Test: Antioxidant activity assessed as DPPH free radical scavenging activity after 30 mins
Format: functional

SMILES	IC50 [µM]
COc1c(C(C)C)cc2c(c1O)[C@@]1(CO)CCCC(C)(C)[C@@H]1CC2	83.4
O=C1O[C@H]([C@@H](O)CO)C(O)=C1O [ASCORBIC ACID]	66.8
CC(C)c1cc2c(c(O)c1O)[C@@]1(C(=O)O)CCCC(C)(C)[C@@H]1CC2 [CARNOSIC ACID]	53.3

Continued by falling IC50, values first:

IC50 [µM]	SMILES
114	CC(C)c1cc2c(c(O)c1O)[C@@]13CCCC(C)(C)[C@@H]1C[C@@H]2OC3=O [CARNOSOL]
66	CC1(C)CCC[C@@]23C(=O)OC(C[C@@H]12)c1cc(C(CO)CO)c(O)c(O)c13
46.1	CCCOC(=O)c1cc(O)c(O)c(O)c1 [PROPYL GALLATE]
37.8	Oc1cccc(O)c1O [PYROGALLOL]

— ChEMBL document CHEMBL1150630, “Oxidation, reduction, and methylation of carnosic acid by Nocardia” (J Nat Prod, 2002)
